Results reported in US20260325464A1, “COMPOSITIONS FOR MODULATING THE EXPRESSION OF AQUAPORINS IN NEURODEGENERATIVE DISORDERS” (priority 2023, published 2026).

Experiments:
Type in all cases: in vivo, rat
Aquaporin 9 (AQP9) = test: AQP9 expression, reserpine Parkinson's model; conditions: 5, 10 and 20 mg/kg, FIG. 9
Excerpt: The induction of Parkinson's disease and measurement of other parameters were done as per the reported protocol (Santos et al., Cognitive, motor and tyrosine hydroxylase temporal impairment in a model of parkinsonism induced by reserpine. Behav Brain Res. 2013; 253:68-77 and Shishehbore et al. A novel kinetic spectrophotometric method for the determination of dopamine in biological and pharmaceutical samples. J Chem. 2013; 2013:1-6). Induction of Parkinson's disease was done by administering Resperine, which inhibits the monoamine vesicular transporters, thus decreasing the levels of monoamine neurotransmitters in the brain. Following pretreatment for 14 days with Gingerenone A, the rat groups received subcutaneous injections of reserpine (4 mg/kg) for the final five days of the treatment regimen. Resperine (5 mg) was dissolved in 1 ml of 1% acetic acid and then diluted tenfold with distilled water to achieve a final concentration of 500 μg/ml. The normal control group received saline with 1% acetic acid for 14 days, administered from day 10 to day 14. Thirty minutes following the administration of reserpine on the 14th day, behavioural assessments were conducted using the Open Field test, Y Maze, and Catalepsy tests to evaluate changes. Rats administered with Carbidopa, a known drug for the management of Parkinson's disease was also used for comparison. […]

Parkinson's disease = test: Y-maze test in rats with reserpine-induced Parkinson's disease; conditions: for No of arm entries / Spontaneous alterations (%): p.o. + Reserpine (4 mg/kg, s.c.), Y maze, Mean ± SEM, n = 6
Excerpt: (§1) The induction of Parkinson's disease and measurement of other parameters were done as per the reported protocol (Santos et al., Cognitive, motor and tyrosine hydroxylase temporal impairment in a model of parkinsonism induced by reserpine. Behav Brain Res. 2013; 253:68-77 and Shishehbore et al. A novel kinetic spectrophotometric method for the determination of dopamine in biological and pharmaceutical samples. J Chem. 2013; 2013:1-6). Induction of Parkinson's disease was done by administering Resperine, which inhibits the monoamine vesicular transporters, thus decreasing the levels of monoamine neurotransmitters in the brain. Following pretreatment for 14 days with Gingerenone A, the rat groups received subcutaneous injections of reserpine (4 mg/kg) for the final five days of the treatment regimen. Resperine (5 mg) was dissolved in 1 ml of 1% acetic acid and then diluted tenfold with distilled water to achieve a final concentration of 500 μg/ml. The normal control group received saline with 1% acetic acid […], administered from day 10 to day 14. Thirty minutes following the administration of reserpine on the 14th day, behavioural assessments were conducted using the Open Field test, Y Maze, and Catalepsy tests to evaluate changes. Rats administered with Carbidopa, a known drug for the management of Parkinson's disease was also used for comparison. Upon completion of the study, brains were harvested for biochemical analyses and histopathological studies. The experimental group is depicted in table 10.
Y-maze test—In the Y-maze test, spontaneous alterations serve as an indicator of working short-term memory.
The maze consisted of a triangular central area with three equilateral arms labeled A, B, and C, each measuring 35 cm in length, 25 cm in height, and 10 cm in width. During the test, each rat was placed in the central area, facing one of the arms. An entry was scored when all four paws of the rat entered an arm. Spontaneous alterations in behavior were defined as consecutive entries into different arms (e.g., ABC, BCA, or CAB, but not CAC). The maximum number of spontaneous alterations ([…]) and the percentage of spontaneous alterations (actual number of alterations divided by the maximum alterations, multiplied by 100) were calculated for each rat (Kraeuter et al., The Y-Maze for Assessment of Spatial Working and Reference Memory in Mice. Methods Mol Biol. 2019; 1916:105-111).

Apolipoprotein E = Apolipoprotein E level in plasma (ELISA), AlCl3 Alzheimer's model; conditions: for Apolipoprotein E: p.o. + AlCl3 (100 mg/kg, i.p.), plasma, Mean ± SEM, n = 6
Excerpt: (§2) The levels of Tau, β-amyloid (1-42) and Apolipoprotein E were estimated. using ELISA kit (Krishgen Biosystems, India). All the protein biomarkers of AD were elevated in the AD control group.

substantia nigra = test: Brain histopathology of substantia nigra, reserpine Parkinson's model
Excerpt: The brain histopathology was done for all the experimental groups. The brain tissue was fixed in 10% buffered neutral formalin solution. The tissue was embedded in paraffin, sectioned at […] stained with hematoxylin and eosin (H&E). The sections were examined under light microscope to study the architecture of the brain tissue, and then photomicrographs were taken (Fischer A H, Jacobson K A, Rose J, Zeller R. Hematoxylin and eosin staining of tissue and cell sections. CSH Protoc. 2008:1;pdb.prot4986. doi: 10.1101/pdb.prot4986).
as §1, with “Rats administered with Carbidopa, a known drug for the management of Parkinson's disease was also used for comparison.” left out

Tau = Tau level in plasma (ELISA), AlCl3 Alzheimer's model; conditions: 5, 10 and 20 mg/kg, FIG. 2
Excerpt: as §2

β-amyloid (1-42) = β-amyloid (1-42) level in plasma (ELISA), AlCl3 Alzheimer's model; conditions: for β-amyloid: p.o. + AlCl3 (100 mg/kg, i.p.), plasma, Mean ± SEM, n = 6
Excerpt: as §2

Structure (SMILES): COc1cc(CC/C=C/C(=O)CCc2ccc(O)c(OC)c2)ccc1O [Gingerenone A]
- AQP9 expression (in words) (Aquaporin 9 (AQP9)): inhibited AQP9 expression
- No of arm entries (Parkinson's disease; 5 mg/kg): 9.37 ± 0.29
- Spontaneous alterations (%) (Parkinson's disease; 5 mg/kg): 21.43 ± 1.08 %
- No of arm entries (Parkinson's disease; 10 mg/kg): 11.57 ± 0.92
- Spontaneous alterations (%) (Parkinson's disease; 10 mg/kg): 26.87 ± 1.05 %
- No of arm entries (Parkinson's disease; 20 mg/kg): 12.09 ± 1.39
- Spontaneous alterations (%) (Parkinson's disease; 20 mg/kg): 26.21 ± 0.98 %
- working memory in Y-maze (in words) (Parkinson's disease; reserpine model, Table 12): significantly increase the working memory with increase in entries in the different arms with more number of alterations
- Apolipoprotein E (Apolipoprotein E; 5 mg/kg): 7.47 ± 0.054 ng/mL
- Apolipoprotein E (Apolipoprotein E; 10 mg/kg): 7.08 ± 0.076 ng/mL
- Apolipoprotein E (Apolipoprotein E; 20 mg/kg): 6.84 ± 0.034 ng/mL
- levels of Apolipoprotein E (in words) (Apolipoprotein E; AlCl3 model, Table 8): significantly reduced
- histopathology of substantia nigra (substantia nigra; 5 mg/kg, FIG. 12): both normal [FIG. 12A—Arrow] and degenerative neuronal cells having dark nucleus with mild basophilic cytoplasm [FIG. 12B—Arrow] and focal reactive microgliosis. Scant inflammation was noted at places. The neuropils had focal vacuoles
- histopathology of substantia nigra (substantia nigra; 10 mg/kg, FIG. 13): both normal [FIG. 13A—Arrow] and degenerative neuronal cells having variable darkly stained nucleus [FIG. 13B—Arrow] with mild basophilic cytoplasm and scant inflammation
- histopathology of substantia nigra (substantia nigra; 20 mg/kg, FIG. 14): both normal [FIG. 14A—Arrow] and degenerative neuronal cells having variable darkly stained nucleus [14B—Arrow] with mild basophilic cytoplasm and scant inflammation
- Tau levels in plasma (in words) (Tau): significantly reduced
- β-amyloid (β-amyloid (1-42); 5 mg/kg): 10.74 ± 0.035 pg/mL
- β-amyloid (β-amyloid (1-42); 10 mg/kg): 8.04 ± 0.023 pg/mL
- β-amyloid (β-amyloid (1-42); 20 mg/kg): 7.88 ± 0.065 pg/mL
- levels of β-amyloid (in words) (β-amyloid (1-42); AlCl3 model, Table 7): significantly reduced
